Values belong to the compound of their own block, whether it stands above or below them.
Legend:
Thromboxane A2 receptor = Thromboxane A2 receptor (Homo sapiens, UniProt P21731); experiment: Binding assay (TBXA2R)
[1] = target: 5-hydroxytryptamine receptor 1A (Homo sapiens) (UniProt P08908); experiment: 5-HT1A (h) CEREP ligand profiling; settings: Compound concentration 10.0 uM
[2] = target: Adenosine receptor A2a (Homo sapiens) (UniProt P29274); experiment: A2A (h) CEREP ligand profiling; settings: Compound concentration 10.0 uM
Sequence of Adenosine receptor A2a (Homo sapiens) (P29274 whole entry): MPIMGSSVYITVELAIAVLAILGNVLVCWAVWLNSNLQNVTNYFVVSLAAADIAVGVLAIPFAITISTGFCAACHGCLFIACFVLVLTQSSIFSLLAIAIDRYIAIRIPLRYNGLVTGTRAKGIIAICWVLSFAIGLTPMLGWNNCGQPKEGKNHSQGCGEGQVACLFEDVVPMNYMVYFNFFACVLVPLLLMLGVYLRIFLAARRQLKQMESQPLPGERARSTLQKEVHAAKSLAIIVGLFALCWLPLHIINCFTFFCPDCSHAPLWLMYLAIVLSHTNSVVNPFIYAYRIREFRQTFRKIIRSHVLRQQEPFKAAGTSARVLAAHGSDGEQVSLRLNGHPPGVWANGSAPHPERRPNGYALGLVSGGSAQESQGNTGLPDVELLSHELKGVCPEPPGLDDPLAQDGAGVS

[3] = target: Adrenergic receptor alpha-1 (Homo sapiens) (UniProt P35348+P25100+P35368); experiment: alpha 1 (non- selective) CEREP ligand profiling; type: protein assay; settings: Compound concentration 10.0 uM
[4] = target: Sodium/potassium-transporting ATPase (Homo sapiens) (UniProt P05023+P14415+P05026+P50993+P54709+P13637+Q13733+P54710); experiment: ATPase (Na+/K+) CEREP ligand profiling; type: protein-complex assay; settings: Compound concentration 10.0 uM
[5] = target: Voltage-gated L-type calcium channel (DHP site) (Homo sapiens, UniProt O60840+Q01668+Q13698+Q13936); experiment: Ca2+ channel (L, DHP site) CEREP ligand profiling; type: protein assay; settings: compound concentration 10 uM
[6] = target: Cholecystokinin receptor type A (Homo sapiens) (UniProt P32238); experiment: CCKA (h) (CCK1) CEREP ligand profiling; settings: Compound concentration 10.0 uM
[7] = target: GABA-A receptor; anion channel (Homo sapiens) (UniProt P14867+P47870+P18507+P28472+P48169+Q99928+Q9UN88+P34903+O00591+O14764+Q8N1C3+P18505+P78334+P47869+P31644+Q16445); experiment: Cl- channel CEREP ligand profiling; type: protein-complex assay; settings: Compound concentration 10.0 uM
[8] = target: Prostaglandin G/H synthase 2 (Homo sapiens) (UniProt P35354); experiment: COX2 (h) CEREP ligand profiling; settings: Compound concentration 10.0 uM
[9] = target: C-X-C chemokine receptor type 4 (Homo sapiens) (UniProt P61073); experiment: CXCR4 (h) CEREP ligand profiling; settings: Compound concentration 10.0 uM
D(1A) dopamine receptor = D(1A) dopamine receptor (Homo sapiens, UniProt P21728); experiment: D1 (h) CEREP ligand profiling; settings: Compound concentration 10.0 uM
[10] = target: Histamine H3 receptor (Homo sapiens) (UniProt Q9Y5N1); experiment: H3 (h) CEREP ligand profiling; settings: Compound concentration 10.0 uM
[11] = target: Mu-type opioid receptor (Homo sapiens) (UniProt P35372); experiment: mu (h) (MOP) (agonist site) CEREP ligand profiling; settings: Compound concentration 10.0 uM
Sequence of Mu-type opioid receptor (Homo sapiens) (P35372 whole entry): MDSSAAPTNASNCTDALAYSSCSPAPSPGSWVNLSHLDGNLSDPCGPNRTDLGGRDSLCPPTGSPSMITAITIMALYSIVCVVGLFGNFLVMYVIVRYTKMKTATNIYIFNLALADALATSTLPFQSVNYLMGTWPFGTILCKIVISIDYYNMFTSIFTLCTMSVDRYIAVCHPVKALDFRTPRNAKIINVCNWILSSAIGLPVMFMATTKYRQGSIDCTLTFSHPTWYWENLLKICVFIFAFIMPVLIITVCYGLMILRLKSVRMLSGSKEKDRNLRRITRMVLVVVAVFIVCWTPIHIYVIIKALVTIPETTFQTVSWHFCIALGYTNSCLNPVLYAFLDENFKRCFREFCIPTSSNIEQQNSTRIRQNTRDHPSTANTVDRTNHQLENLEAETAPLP

[12] = target: Neuronal acetylcholine receptor; alpha4/beta2 (Homo sapiens) (UniProt P17787+P43681); experiment: N (neuronal) (alpha -BGTX-insensitive) (alpha 4 beta 2) CEREP ligand profiling; type: protein-complex assay; settings: Compound concentration 10.0 uM
[13] = target: Vasopressin V1a receptor (Homo sapiens) (UniProt P37288); experiment: V1a (h) CEREP ligand profiling; settings: Compound concentration 10.0 uM
[14] = target: Activin receptor type-1B (Homo sapiens) (UniProt P36896); settings: Compound concentration 1000.0 nM
Sequence of Activin receptor type-1B (Homo sapiens) (P36896 whole entry): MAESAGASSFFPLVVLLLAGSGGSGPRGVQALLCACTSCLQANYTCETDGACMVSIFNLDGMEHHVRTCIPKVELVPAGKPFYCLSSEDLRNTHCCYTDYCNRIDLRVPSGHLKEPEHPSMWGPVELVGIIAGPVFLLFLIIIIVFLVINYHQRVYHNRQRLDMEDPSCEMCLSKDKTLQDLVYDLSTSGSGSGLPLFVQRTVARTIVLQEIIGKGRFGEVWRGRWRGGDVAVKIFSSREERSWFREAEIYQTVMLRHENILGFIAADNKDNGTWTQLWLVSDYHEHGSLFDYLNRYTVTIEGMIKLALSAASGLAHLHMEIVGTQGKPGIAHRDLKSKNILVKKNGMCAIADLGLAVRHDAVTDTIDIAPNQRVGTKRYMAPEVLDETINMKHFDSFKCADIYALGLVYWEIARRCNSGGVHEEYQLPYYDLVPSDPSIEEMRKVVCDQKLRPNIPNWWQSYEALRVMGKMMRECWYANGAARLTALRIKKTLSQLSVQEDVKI

[15] = test system: ALK tyrosine kinase receptor (Homo sapiens), Q9UM73 [C1156Y]; settings: Compound concentration 1000.0 nM
Sequence of ALK tyrosine kinase receptor (Homo sapiens), Q9UM73 [C1156Y] (Q9UM73 whole entry C1156Y, looked up): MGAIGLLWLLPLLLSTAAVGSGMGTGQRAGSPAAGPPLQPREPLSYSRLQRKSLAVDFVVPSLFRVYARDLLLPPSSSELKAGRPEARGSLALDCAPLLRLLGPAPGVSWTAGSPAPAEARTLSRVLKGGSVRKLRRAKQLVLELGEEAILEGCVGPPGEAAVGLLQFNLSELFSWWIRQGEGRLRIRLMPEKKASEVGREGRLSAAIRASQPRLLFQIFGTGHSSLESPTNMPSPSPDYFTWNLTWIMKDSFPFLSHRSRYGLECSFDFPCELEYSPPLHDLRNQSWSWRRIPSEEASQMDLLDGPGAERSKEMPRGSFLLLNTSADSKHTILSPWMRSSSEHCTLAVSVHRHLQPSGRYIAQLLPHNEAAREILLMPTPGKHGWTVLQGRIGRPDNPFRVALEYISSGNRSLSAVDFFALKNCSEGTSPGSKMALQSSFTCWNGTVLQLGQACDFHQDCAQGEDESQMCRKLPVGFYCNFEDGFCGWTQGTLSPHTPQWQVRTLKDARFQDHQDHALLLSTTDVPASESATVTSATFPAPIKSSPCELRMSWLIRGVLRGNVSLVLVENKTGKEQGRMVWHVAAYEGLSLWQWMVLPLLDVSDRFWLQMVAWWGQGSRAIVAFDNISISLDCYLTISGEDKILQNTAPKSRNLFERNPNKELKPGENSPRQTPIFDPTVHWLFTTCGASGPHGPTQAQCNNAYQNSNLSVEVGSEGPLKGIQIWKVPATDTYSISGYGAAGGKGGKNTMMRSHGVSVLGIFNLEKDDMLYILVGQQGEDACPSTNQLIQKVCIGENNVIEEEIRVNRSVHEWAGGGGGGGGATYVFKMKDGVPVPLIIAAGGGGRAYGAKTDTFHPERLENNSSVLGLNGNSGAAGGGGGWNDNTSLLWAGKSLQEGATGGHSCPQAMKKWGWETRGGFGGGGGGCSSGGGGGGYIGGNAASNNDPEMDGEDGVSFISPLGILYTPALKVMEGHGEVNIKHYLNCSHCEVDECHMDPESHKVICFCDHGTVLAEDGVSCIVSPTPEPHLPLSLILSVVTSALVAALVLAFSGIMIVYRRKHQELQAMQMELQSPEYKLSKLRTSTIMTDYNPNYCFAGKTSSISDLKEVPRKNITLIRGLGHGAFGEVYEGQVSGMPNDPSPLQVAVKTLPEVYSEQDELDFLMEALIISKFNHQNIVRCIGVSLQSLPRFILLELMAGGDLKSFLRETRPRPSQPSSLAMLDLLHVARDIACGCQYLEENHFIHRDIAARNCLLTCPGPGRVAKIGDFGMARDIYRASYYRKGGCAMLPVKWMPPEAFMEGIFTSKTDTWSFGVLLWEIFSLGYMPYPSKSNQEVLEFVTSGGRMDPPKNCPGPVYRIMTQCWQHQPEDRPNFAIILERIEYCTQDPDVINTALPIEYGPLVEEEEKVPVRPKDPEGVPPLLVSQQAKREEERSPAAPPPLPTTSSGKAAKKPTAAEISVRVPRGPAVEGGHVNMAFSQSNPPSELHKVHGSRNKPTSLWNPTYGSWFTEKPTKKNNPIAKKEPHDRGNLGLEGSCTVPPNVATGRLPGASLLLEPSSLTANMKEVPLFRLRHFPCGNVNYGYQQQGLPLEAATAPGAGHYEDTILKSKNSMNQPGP

[16] = target: Mitogen-activated protein kinase kinase kinase 6 (Homo sapiens) (UniProt O95382); settings: Compound concentration 1000.0 nM
[17] = target: Bone morphogenetic protein receptor type-1B (Homo sapiens) (UniProt O00238); settings: Compound concentration 1000.0 nM
[18] = target: Calcium/calmodulin-dependent protein kinase kinase 2 (Homo sapiens) (UniProt Q96RR4); settings: Compound concentration 1000.0 nM
[19] = target: Serine/threonine-protein kinase Chk1 (Homo sapiens) (UniProt O14757); settings: Compound concentration 1000.0 nM
[20] = target: Macrophage colony-stimulating factor 1 receptor (Homo sapiens) (UniProt P07333); settings: Compound concentration 1000.0 nM
[21] = target: Casein kinase I isoform gamma-1 (Homo sapiens) (UniProt Q9HCP0); settings: Compound concentration 1000.0 nM
[22] = target: Myotonin-protein kinase (Homo sapiens) (UniProt Q09013); settings: Compound concentration 1000.0 nM
[23] = target: Serine/threonine-protein kinase MRCK gamma (Homo sapiens) (UniProt Q6DT37); settings: Compound concentration 1000.0 nM
[24] = target: Ephrin type-A receptor 5 (Homo sapiens) (UniProt P54756); settings: Compound concentration 1000.0 nM
[25] = target: Mitogen-activated protein kinase 1 (Homo sapiens) (UniProt P28482); settings: Compound concentration 1000.0 nM
[26] = test system: Receptor-type tyrosine-protein kinase FLT3 (Homo sapiens), P36888 [UNDEFINED MUTATION]; settings: Compound concentration 1000.0 nM
[27] = target: Beta-adrenergic receptor kinase 1 (Homo sapiens) (UniProt P25098); settings: Compound concentration 1000.0 nM
[28] = target: Serine/threonine-protein kinase ICK (Homo sapiens) (UniProt Q9UPZ9); settings: Compound concentration 1000.0 nM
[29] = target: Mitogen-activated protein kinase 8 (Homo sapiens) (UniProt P45983); settings: Compound concentration 1000.0 nM
Sequence of Mitogen-activated protein kinase 8 (Homo sapiens) (P45983 whole entry): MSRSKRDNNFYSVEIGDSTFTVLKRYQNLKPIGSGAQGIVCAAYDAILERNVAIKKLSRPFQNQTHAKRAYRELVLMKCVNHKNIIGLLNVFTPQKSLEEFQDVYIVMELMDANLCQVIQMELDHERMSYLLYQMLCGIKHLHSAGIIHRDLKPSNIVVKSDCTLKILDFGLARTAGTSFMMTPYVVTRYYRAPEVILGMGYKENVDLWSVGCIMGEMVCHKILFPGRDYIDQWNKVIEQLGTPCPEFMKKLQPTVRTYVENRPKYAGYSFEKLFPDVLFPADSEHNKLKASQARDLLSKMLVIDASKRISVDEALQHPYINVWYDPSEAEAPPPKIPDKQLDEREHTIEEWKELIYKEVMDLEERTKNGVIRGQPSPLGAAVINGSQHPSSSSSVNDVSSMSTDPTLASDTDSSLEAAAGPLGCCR

[30] = target: Tyrosine-protein kinase Lck (Homo sapiens) (UniProt P06239); settings: Compound concentration 1000.0 nM
[31] = target: Muscle, skeletal receptor tyrosine-protein kinase (Homo sapiens) (UniProt O15146); settings: Compound concentration 1000.0 nM
Sequence of Muscle, skeletal receptor tyrosine-protein kinase (Homo sapiens) (O15146 whole entry): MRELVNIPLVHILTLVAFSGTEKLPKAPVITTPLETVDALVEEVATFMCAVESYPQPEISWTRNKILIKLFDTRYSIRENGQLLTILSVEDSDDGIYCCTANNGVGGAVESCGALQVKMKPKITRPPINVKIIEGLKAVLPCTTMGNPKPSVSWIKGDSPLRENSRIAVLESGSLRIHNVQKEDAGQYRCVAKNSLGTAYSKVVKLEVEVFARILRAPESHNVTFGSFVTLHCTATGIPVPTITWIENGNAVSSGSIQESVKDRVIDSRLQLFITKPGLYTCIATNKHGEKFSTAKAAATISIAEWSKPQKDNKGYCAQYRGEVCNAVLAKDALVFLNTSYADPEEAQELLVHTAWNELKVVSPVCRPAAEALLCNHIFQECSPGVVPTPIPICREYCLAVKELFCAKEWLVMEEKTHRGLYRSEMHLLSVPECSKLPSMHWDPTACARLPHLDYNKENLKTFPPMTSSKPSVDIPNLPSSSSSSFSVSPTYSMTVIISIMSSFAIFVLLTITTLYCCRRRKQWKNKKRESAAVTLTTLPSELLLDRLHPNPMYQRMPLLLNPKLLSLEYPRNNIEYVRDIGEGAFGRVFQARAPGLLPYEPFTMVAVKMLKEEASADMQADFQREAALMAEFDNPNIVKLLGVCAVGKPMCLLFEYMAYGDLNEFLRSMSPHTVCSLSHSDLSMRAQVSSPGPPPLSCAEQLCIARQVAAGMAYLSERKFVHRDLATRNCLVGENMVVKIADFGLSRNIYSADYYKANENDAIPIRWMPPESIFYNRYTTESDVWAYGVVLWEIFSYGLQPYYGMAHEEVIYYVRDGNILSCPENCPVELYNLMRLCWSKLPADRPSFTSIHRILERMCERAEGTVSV

[32] = target: Myosin-IIIb (Homo sapiens) (UniProt Q8WXR4); settings: Compound concentration 1000.0 nM
[33] = target: Mitogen-activated protein kinase 11 (Homo sapiens) (UniProt Q15759); settings: Compound concentration 1000.0 nM
[34] = target: Phosphatidylinositol 5-phosphate 4-kinase type-2 beta (Homo sapiens) (UniProt P78356); settings: Compound concentration 1000.0 nM
[35] = target: Serine/threonine-protein kinase PLK3 (Homo sapiens) (UniProt Q9H4B4); settings: Compound concentration 1000.0 nM
Sequence of Serine/threonine-protein kinase PLK3 (Homo sapiens) (Q9H4B4 whole entry, looked up): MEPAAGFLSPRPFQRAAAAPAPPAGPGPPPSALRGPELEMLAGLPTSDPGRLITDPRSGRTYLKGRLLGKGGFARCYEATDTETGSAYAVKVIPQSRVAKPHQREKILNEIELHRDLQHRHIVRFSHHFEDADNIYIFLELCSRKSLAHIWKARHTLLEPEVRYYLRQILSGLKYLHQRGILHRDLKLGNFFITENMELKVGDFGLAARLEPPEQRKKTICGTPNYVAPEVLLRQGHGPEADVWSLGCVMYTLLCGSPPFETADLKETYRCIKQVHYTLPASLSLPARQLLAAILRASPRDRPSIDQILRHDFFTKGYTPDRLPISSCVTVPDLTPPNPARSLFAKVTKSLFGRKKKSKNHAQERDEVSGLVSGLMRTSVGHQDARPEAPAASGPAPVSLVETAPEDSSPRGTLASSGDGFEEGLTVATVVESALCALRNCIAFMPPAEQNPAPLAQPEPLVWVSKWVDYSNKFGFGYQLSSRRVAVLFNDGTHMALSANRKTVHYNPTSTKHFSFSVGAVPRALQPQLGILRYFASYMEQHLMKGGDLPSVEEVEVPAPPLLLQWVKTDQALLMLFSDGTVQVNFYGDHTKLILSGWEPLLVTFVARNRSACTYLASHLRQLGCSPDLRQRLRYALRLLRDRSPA

[36] = target: Serine/threonine-protein kinase PLK4 (Homo sapiens) (UniProt O00444); settings: Compound concentration 1000.0 nM
[37] = target: Serine/threonine-protein kinase D3 (Homo sapiens) (UniProt O94806); settings: Compound concentration 1000.0 nM
[38] = target: Ribosomal protein S6 kinase alpha-4 (Homo sapiens) (UniProt O75676); settings: Compound concentration 1000.0 nM
[39] = target: Serine/threonine-protein kinase WNK4 (Homo sapiens) (UniProt Q96J92); settings: Compound concentration 1000.0 nM
[40] = target: Mu-type opioid receptor (Homo sapiens) (UniProt P35372); settings: Compound concentration 10.0 uM
[41] = target: Prostaglandin E2 receptor EP2 subtype (Homo sapiens, UniProt P43116); experiment: Inhibition of binding to PTGER2
Rattus norvegicus = species on record: Rattus norvegicus; settings: Compound concentration 10.0 uM

SMILES: COc1ccc2cc(OCC3(C(=O)O)CN(C(=O)c4ccc(F)cc4)C3)ccc2c1 [PF-04418948]
Ki (Thromboxane A2 receptor): > 10 µM (not active)
inhibition [1]: 6%
inhibition [2]: -9%
inhibition [3]: 9%
inhibition [4]: 5%
inhibition at 10 µM [5]: -3% (not active)
inhibition [6]: 29%
inhibition [7]: 19%
inhibition [8]: 2%
inhibition [9]: 4%
inhibition (D(1A) dopamine receptor): 5%
inhibition [10]: 10%
inhibition [11]: -7%
inhibition [12]: -10%
inhibition [13]: -3%
residual activity [14]: 78%
residual activity [15]: 79%
residual activity [16]: 95%
residual activity [17]: 95%
residual activity [18]: 94%
residual activity [19]: 87%
residual activity [20]: 75%
residual activity [21]: 94%
residual activity [22]: 76%
residual activity [23]: 91%
residual activity [24]: 78%
residual activity [25]: 97%
residual activity [26]: 91%
residual activity [27]: 72%
residual activity [28]: 78%
residual activity [29]: 76%
residual activity [30]: 80%
residual activity [31]: 72%
residual activity [32]: 71%
residual activity [33]: 78%
residual activity [34]: 74%
residual activity [35]: 95%
residual activity [36]: 82%
residual activity [37]: 91%
residual activity [38]: 85%
residual activity [39]: 79%
inhibition [40]: 1.07%

IC50 [41]: 1.3 µM (not active)
inhibition (Rattus norvegicus): 16.3%
SMILES: O=C(c1ccc(F)cc1)N1CC(COc2ccc(Br)cc2)(C(=O)O)C1 [PF-04475866]

— ChEMBL document CHEMBL4507298 (2021)
